{
  "source": "paper PMC11152041",
  "about": "“Tricarbonyl rhenium(I) complexes with 8-hydroxyquinolines: structural, chemical, antibacterial, and anticancer characteristics” (RSC Advances, 2024)",
  "key": {"[1]": {"system": "P. aeruginosa ATCC27853", "experiment": "Broth microdilution MIC/MBC (ISO 20776-1)", "format": "cell-based, Pseudomonas aeruginosa", "conditions": "Pseudomonas aeruginosa", "method": "(§1) Bacterial strains and cell lines were obtained from the American Type Culture Collection (ATCC).[59] […] Antimicrobial activity was tested in Müeller Hinton (MH) II broth (Becton Dickinson). For anticancer activity assay, the following reagents from Merk were used: 3-(4,5-dimethylthiazol-2-yl)-2,5-diphenyltetrazolium bromide (MTT), sodium dodecyl sulfate (SDS) and HCl. The solubilized formazan product was spectrophotometrically quantified in a Power Wave XS (Bio Tek, Winooski, VT, USA) microplate reader. The HL-60 and PC-3 cells were grown in RPMI-1640 medium with stable glutamine (Biowest) supplemented with 10% (v/v) of heat-inactivated fetal bovine serum (FBS, Biowest) and 1% (v/v) of antibiotic–antimycotic solution (Biowest). The SKOV-3 cells were grown in McCoy's 5A medium with L-glutamine (Biowest) supplemented with 10% (v/v) heat-inactivated FBS, and 1% (v/v) antibiotic–antimycotic solution. The MCF-7 cells were grown in Eagle's MEM (Minimal Essential Medium) medium with stable glutamine (Biowest), supplemented with 10% (v/v) heat-inactivated FBS 1% (v/v) MEM non-essential amino acids (Biowest), 1% (v/v) antibiotic–antimycotic solution, and 1 mM sodium pyruvate (Merck). The MCF-10A cells were grown in Ham's F-12K (Kaighn's) Medium with stable glutamine (Gibco) supplemented with 5% (v/v) heat-inactivated FBS, 1% (v/v) MEM non-essential amino acids, 1% (v/v) antibiotic–antimycotic solution, 5 μg mL^−1 insulin, 0.04 μg mL^−1 hydrocortisone (Merck), and 15 ng mL^−1 human Epidermal Growth Factor (hEGF, PeproTech).\n(§2) The in vitro antibacterial activity was determined according to ISO 20776-1.[88] Among the tested microorganisms were Gram-negative rods, E. coli ATCC25922 and P. aeruginosa ATCC27853, and Gram-positive cocci, S. aureus ATCC29213 and E. faecalis ATCC29212. The selected bacterial species represented the most common etiologic agents of human infections and are used for quality control of antimicrobial susceptibility testing.[89] The test procedure included the determination of MICs and MBCs of complexes and their free ligands. MIC and MBC determinations of ciprofloxacin, as the reference antibiotic, were also performed. All compounds were dissolved in DMSO to reach the maximum 512 mg L^−1 concentration. […] The assay consisted of preparing 2-fold dilutions of the substances in a liquid growth medium MH II and inoculating them with a standardized suspension of microorganisms at a McFarland density of 0.5 (≈10^8 CFU mL^−1). The culture plates were incubated at 35 °C for 24 h. The lowest concentration of the compound inhibiting visible bacterial growth was specified as MIC, and the concentration that reduced bacterial growth by >99.99% after counting live bacteria on the plates compared to the positive control was defined as MBC."}, "[2]": {"system": "E. coli ATCC25922", "experiment": "Broth microdilution MIC/MBC (ISO 20776-1)", "format": "cell-based, Escherichia coli", "conditions": "Escherichia coli", "method": "as §1, §2"}, "[3]": {"system": "S. aureus ATCC29213", "experiment": "Broth microdilution MIC/MBC (ISO 20776-1)", "format": "cell-based, Staphylococcus aureus", "conditions": "Staphylococcus aureus", "method": "as §1, §2"}, "[4]": {"system": "E. faecalis ATCC29212", "experiment": "Broth microdilution MIC/MBC (ISO 20776-1)", "format": "cell-based, Enterococcus faecalis", "conditions": "Enterococcus faecalis", "method": "as §1, §2"}, "[5]": {"system": "SKOV-3 cells", "experiment": "MTT cytotoxicity assay", "format": "cell-based, human", "conditions": "Homo sapiens, read-out: IC50 ± SD", "method": "(§3) The cytotoxicities for studied compounds were evaluated against leukemia cells (HL-60), as well as ovarian (SKOV-3), prostate (PC-3), and breast (MCF-7) cancer cell lines. The potential selectivity of these compounds towards cancer cells was assessed by determination of their cytotoxicities towards breast non-cancerous cells (MCF-10A). For comparison, cisplatin was added to the cytotoxicity assays.\nas §1\n(§4) The cells were cultured in 96-well plates and incubated with the tested compound for 24 h and 48 h. All experiments were performed in exponentially growing cultures. The 0.03 M solutions of the compounds in DMSO were appropriately diluted using culture media. The maximal final concentration of DMSO in each well was 0.1%. The cytotoxicity of the compounds was measured by determining cell viability with a colorimetric test based on 3-(4,5-dimethylthiazol-2-yl)-2,5-diphenyltetrazolium bromide (MTT). MTT stock solution was added to each well to a final concentration of 0.5 mg mL^−1 and incubated for 4 h at 37 °C; following formazan crystals were dissolved by the addition of sodium dodecyl sulfate (SDS) solution (10% SDS in 0.001 M HCl). MTT and SDS were added directly to the cell culture. The compound's IC50 values (concentration required to reduce the viability of cells by 50% compared with the control cells) were calculated from the data obtained with the MTT assay."}, "[6]": {"system": "PC-3 cells", "experiment": "MTT cytotoxicity assay", "format": "cell-based, human", "conditions": "Homo sapiens, read-out: IC50 ± SD", "method": "as §3, §1, §4"}, "[7]": {"system": "HL-60 cells", "experiment": "MTT cytotoxicity assay", "format": "cell-based, human", "conditions": "Homo sapiens", "method": "as §3, §1, §4"}, "[8]": {"system": "MCF-7 cells", "experiment": "MTT cytotoxicity assay", "format": "cell-based, human", "conditions": "for IC50: Homo sapiens, read-out: IC50 ± SD; for selectivity: IC50 for normal cells times higher than for breast cancer cells: MCF-10A versus MCF-7", "method": "as §3, §1, §4"}, "[9]": {"system": "MCF-10A cells", "experiment": "MTT cytotoxicity assay", "conditions": "Homo sapiens, MCF-10A, read-out: IC50 ± SD", "method": "as §3, §1, §4"}, "[10]": {"conditions": "P. aeruginosa ATCC27853, >99.99% reduction of growth, read-out: MBC"}, "[11]": {"conditions": "P. aeruginosa ATCC27853, MH II broth, 35 °C, 24 h, read-out: MIC"}, "[12]": {"conditions": "E. coli ATCC25922, >99.99% reduction of growth, read-out: MBC"}, "[13]": {"conditions": "E. coli ATCC25922, MH II broth, 35 °C, 24 h, read-out: MIC"}, "[14]": {"conditions": "S. aureus ATCC29213, >99.99% reduction of growth, read-out: MBC"}, "[15]": {"conditions": "S. aureus ATCC29213, MH II broth, 35 °C, 24 h, read-out: MIC"}, "[16]": {"conditions": "E. faecalis ATCC29212, >99.99% reduction of growth, read-out: MBC"}, "[17]": {"conditions": "E. faecalis ATCC29212, MH II broth, 35 °C, 24 h, read-out: MIC"}},
  "note": "Where two headings read alike, the source gives them in different places.",
  "data": [
    {"smiles": "O=C(O)c1cn(C2CC2)c2cc(N3CCNCC3)c(F)cc2c1=O", "note": "[CIP, ciprofloxacin, reference compound]", "values": [
      {"measurement": "MBC", "setting": "[1]; [10]", "value": 8, "unit": "µg/mL"},
      {"measurement": "MIC", "setting": "[1]; [11]", "value": 1, "unit": "µg/mL"},
      {"measurement": "MBC", "setting": "[2]; [12]", "value": 4, "unit": "µg/mL"},
      {"measurement": "MIC", "setting": "[2]; [13]", "value": "< 0.5", "unit": "µg/mL"},
      {"measurement": "MBC", "setting": "[3]; [14]", "value": 1, "unit": "µg/mL"},
      {"measurement": "MIC", "setting": "[3]; [15]", "value": "< 0.5", "unit": "µg/mL"},
      {"measurement": "MBC", "setting": "[4]; [16]", "value": 8, "unit": "µg/mL"},
      {"measurement": "MIC", "setting": "[4]; [17]", "value": 2, "unit": "µg/mL"}
    ]},
    {"smiles": "Oc1ccc(Cl)c2cccnc12", "note": "[ClHQ, 5-chloro-8-hydroxyquinoline, reference compound]", "values": [
      {"measurement": "MBC", "setting": "[1]; [10]", "value": "> 512", "unit": "µg/mL"},
      {"measurement": "MIC", "setting": "[1]; [11]", "value": 256, "unit": "µg/mL"},
      {"measurement": "MBC", "setting": "[2]; [12]", "value": "> 512", "unit": "µg/mL"},
      {"measurement": "MIC", "setting": "[2]; [13]", "value": 16, "unit": "µg/mL"},
      {"measurement": "MBC", "setting": "[3]; [14]", "value": 32, "unit": "µg/mL"},
      {"measurement": "MIC", "setting": "[3]; [15]", "value": 8, "unit": "µg/mL"},
      {"measurement": "IC50", "setting": "[5]; SK-OV-3, SKOV-3, 24 h, MTT", "value": "> 100", "unit": "µM"},
      {"measurement": "IC50", "setting": "[5]; SK-OV-3, SKOV-3, 48 h, MTT", "value": "42 ± 7", "unit": "µM"},
      {"measurement": "IC50", "setting": "[6]; PC-3, 24 h, MTT", "value": "25 ± 3", "unit": "µM"},
      {"measurement": "IC50", "setting": "[6]; PC-3, 48 h, MTT", "value": "39 ± 3", "unit": "µM"},
      {"measurement": "IC50", "setting": "[7]; HL-60, 24 h, MTT, read-out: IC50 ± SD", "value": "1.7 ± 0.1", "unit": "µM"},
      {"measurement": "IC50", "setting": "[7]; HL-60, 48 h, MTT, read-out: IC50 ± SD", "value": "1.6 ± 0.4", "unit": "µM"},
      {"measurement": "IC50", "setting": "[7]; HL-60, incubation time not stated in the text (24 and 48 h), read-out: IC50", "value": "< 2", "unit": "µM"},
      {"measurement": "IC50", "setting": "[8]; MCF7, MCF-7, 24 h, MTT", "value": "32 ± 8", "unit": "µM"},
      {"measurement": "IC50", "setting": "[8]; MCF7, MCF-7, 48 h, MTT", "value": "13 ± 5", "unit": "µM"},
      {"measurement": "selectivity: IC50 for normal cells times higher than for breast cancer cells", "setting": "[8]", "value": "at least 3 times"},
      {"measurement": "IC50", "setting": "[9]; 24 h", "value": "> 100", "unit": "µM"},
      {"measurement": "IC50", "setting": "[9]; 48 h", "value": "70 ± 1", "unit": "µM"},
      {"measurement": "MBC", "setting": "[4]; [16]", "value": "< 0.5", "unit": "µg/mL"},
      {"measurement": "MIC", "setting": "[4]; [17]", "value": "< 0.5", "unit": "µg/mL"}
    ]},
    {"smiles": "Oc1cccc2cccnc12", "note": "[HQ, 8-hydroxyquinoline]", "values": [
      {"measurement": "MBC", "setting": "[1]; ATCC27853", "value": "> 512", "unit": "µg/mL"},
      {"measurement": "MIC", "setting": "[1]; ATCC27853, 24 h", "value": 256, "unit": "µg/mL"},
      {"measurement": "MBC", "setting": "[2]; ATCC25922", "value": "> 512", "unit": "µg/mL"},
      {"measurement": "MIC", "setting": "[2]; ATCC25922, 24 h", "value": 32, "unit": "µg/mL"},
      {"measurement": "MBC", "setting": "[3]; ATCC29213", "value": 64, "unit": "µg/mL"},
      {"measurement": "MIC", "setting": "[3]; ATCC29213, 24 h", "value": 16, "unit": "µg/mL"},
      {"measurement": "IC50", "setting": "[5]; SK-OV-3, 24 h", "value": "> 100", "unit": "µM"},
      {"measurement": "IC50", "setting": "[5]; SK-OV-3, 48 h", "value": "29 ± 5", "unit": "µM"},
      {"measurement": "IC50", "setting": "[6]; PC-3, 24 h", "value": "18 ± 2", "unit": "µM"},
      {"measurement": "IC50", "setting": "[6]; PC-3, 48 h", "value": "29 ± 3", "unit": "µM"},
      {"measurement": "IC50", "setting": "[7]; HL-60, 24 h, read-out: IC50 ± SD", "value": "2.2 ± 0.2", "unit": "µM"},
      {"measurement": "IC50", "setting": "[7]; HL-60, 48 h, read-out: IC50 ± SD", "value": "2 ± 0.2", "unit": "µM"},
      {"measurement": "IC50", "setting": "[8]; MCF7, 24 h", "value": "24 ± 6", "unit": "µM"},
      {"measurement": "IC50", "setting": "[8]; MCF7, 48 h", "value": "7 ± 2", "unit": "µM"},
      {"measurement": "selectivity: IC50 for normal cells times higher than for breast cancer cells", "setting": "[8]", "value": "at least 3 times"},
      {"measurement": "IC50", "setting": "[9]; 24 h", "value": "> 100", "unit": "µM"},
      {"measurement": "IC50", "setting": "[9]; 48 h", "value": "> 100", "unit": "µM"},
      {"measurement": "MBC", "setting": "[4]; ATCC29212", "value": 32, "unit": "µg/mL"},
      {"measurement": "MIC", "setting": "[4]; ATCC29212, 24 h", "value": 2, "unit": "µg/mL"}
    ]}
  ]
}
